Paper PMC10954709, “Structure of an open KATP channel reveals tandem PIP2 binding sites mediating the Kir6.2 and SUR1 regulatory interface” (Nature Communications, 2024)
Values joined by “and” are separate entries in the source; they are usually repeats but may differ in a detail not shown here. Equal values may be shown once.

Legend:
KATP channels = test system: KATP channels; parameters: method as in PMID 12525701; conditions: cited from earlier work
His175 = His175 (UniProt position 175, KTAQAHRRAET); assay: electrophysiology; conditions: cited from earlier work
[1] = molecular target: T1, SUR1/Kir6.2^R176A channel (UniProt P70673+Q09427, R176A); assay: PIP2 response, inside-out patch-clamp recording, COSm6 cells; format: biochemical, rat Kir6.2, hamster SUR1; conditions: 5 μM PIP2; −50 mV; mean (± SEM)
T1 construct: expressed in transfected cells; host or cells: COSm6
Method: (§1) Fig. 3 Functional testing of the two PIP2 binding sites. a Representative inside-out patch-clamp recordings (−50mV, inward currents shown as upward deflections; the red dashed line indicates 0 currents) of various channels: WT, SUR1^K134A (the non-canonical PIP2 binding site mutation)/Kir6.2, SUR1/Kir6.2^R176A (the canonical PIP2 binding site mutation), and SUR1^K134A/Kir6.2^R176A double mutant, exposed alternately in 5 μM PIP2, 0.1 mM ATP, and 1 mM ATP as indicated by the bars above the recordings. The brief exposures to 0.1 mM and 1 mM ATP between PIP2 exposures were used to monitor the gradual decrease in ATP sensitivity as channel opening became increasingly stabilized by PIP2. b Group data of recordings shown in (a) comparing initial currents in K-INT at the time of patch excision. For each group, mean ± SEM of the data points are shown (WT, n = 12; SUR1^K134A, n = 6; Kir6.2^R176A, n = 7; SUR1^K134A/Kir6.2^R176A, n = 6 cells). Statistical significance was tested between mutants and WT or between double and single mutants using two-tailed unpaired t test with Welch’s correction, alpha = 0.05. *SUR1^K134A vs WT, p = 0.0468; ** Kir6.2^R176A vs WT, p = 0.0016; **SUR1^K134A/Kir6.2^R176A vs WT, p = 0.0014; ^#SUR1^K134A/Kir6.2^R176A vs SUR1^K134A, p = 0.0440; ^$SUR1^K134A/Kir6.2^R176A vs Kir6.2^R176A, p = 0.0411. Note the y-axis in this panel and panel (c) is in log scale for better visualization. c Comparison of the maximum fold-increase in currents after PIP2 exposure in different channels. For each group, mean ± SEM of the data points are shown (WT, n = 12; SUR1^K134A, n = 6; Kir6.2^R176A, n = 7; SUR1^K134A/Kir6.2^R176A, n = 5 cells). Statistical significance was tested between mutants and WT or between double and single mutants using two-tailed unpaired t test, alpha = 0.05. ***SUR1^K134A vs WT, p < 0.0001; ** Kir6.2^R176A vs WT, p = 0.0029; **SUR1^K134A/Kir6.2^R176A vs WT, p = 0.0012; ^#SUR1^K134A/Kir6.2^R176A vs SUR1^K134A, p = 0.0247; ^$SUR1^K134A/Kir6.2^R176A vs Kir6.2^R176A, p = 0.0353. d Comparison of the time of exposure in PIP2 for currents to reach maximum in different channels. For each group, mean ± SEM of the data points are shown (WT, n = 12; SUR1^K134A, n = 6; Kir6.2^R176A, n = 7; SUR1^K134A/Kir6.2^R176A, n = 6 cells). Statistical significance was tested between mutants and WT or between double and single mutants using two-tailed unpaired t test, alpha = 0.05. ***SUR1^K134A vs WT, p < 0.0001; ***Kir6.2^R176A vs WT, p = 0.0002; ***SUR1^K134A/Kir6.2^R176A vs WT, p < 0.0001; ^##SUR1^K134A/Kir6.2^R176A vs SUR1^K134A, p = 0.0071.
(§2) For electrophysiology experiments, COSm6 cells were co-transfected with various combination of WT or mutant SUR1 and Kir6.2 cDNAs (SUR1 in pECE and Kir6.2 in pCDNA3) along with the cDNA for the Green Fluorescent Protein (to facilitate identification of transfected cells) using FuGENE® 6 (Promega). Mutant SUR1 and Kir6.2 were constructed using QuikChange (mutagenesis primers are shown in Supplementary Table 2). Cells were plated onto glass coverslips 24 h after transfection and recordings made in the following two days. All experiments were performed at room temperature. Micropipettes were pulled from non-heparinized Kimble glass (Fisher Scientific) on a horizontal puller (Sutter Instrument). Electrode resistance was typically 1-2 MΩ when filled with K-INT solution containing 140 mM KCl, 10 mM K-HEPES, 1 mM K-EGTA, 1 mM EDTA, pH 7.3. ATP was added as the potassium salt. Inside-out patches of cells bathed in K-INT were voltage-clamped with an Axopatch 1D amplifier (Axon Instruments). ATP or porcine brain PIP2 (Avanti Polar Lipids; prepared in K-INT and bath sonicated in ice water for 30 min before use) were added to K-INT as specified in the figure legend. All currents were measured at a membrane potential of −50 mV (pipette voltage = +50 mV). Data were analyzed using pCLAMP10 software (Axon Instrument). Off-line analysis was performed using Clampfit and GraphPad. […]

[2] = molecular target: T2, SUR1^K134A/Kir6.2 channel (UniProt P70673+Q09427, K134A); assay: as above; format: biochemical, rat Kir6.2, hamster SUR1; conditions: 5 μM PIP2; −50 mV; mean (± SEM)
T2 construct: expressed in transfected cells; host or cells: COSm6
Method: as §1, §2

[3] = molecular target: T3, SUR1^K134A/Kir6.2^R176A double mutant channel (UniProt P70673+Q09427, K134A/R176A); assay: as above; format: biochemical, rat Kir6.2, hamster SUR1; conditions: 5 μM PIP2; −50 mV; mean (± SEM)
T3 construct: expressed in transfected cells; host or cells: COSm6
Method: as §1, §2

[4] = molecular target: T4, WT (SUR1/Kir6.2) KATP channels (UniProt P70673+Q09427); assay: as above; format: biochemical, rat Kir6.2, hamster SUR1; conditions: 5 μM PIP2
T4 construct: expressed in transfected cells; host or cells: COSm6
Method: as §1, §2

[5] = molecular target: the molecule itself; assay: cryo-EM structure; SUR1/Kir6.2^Q52R channel co-expressed in COSm6 cells; membranes enriched with brain PIP2 (1 mg/mL) before solubilisation in digitonin; purified via the N-terminal FLAG tag on SUR1; 0.2 M NaCl, 0.1 M KCl, 0.05 M HEPES pH 7.5, 0.05% digitonin; no ATP or ADP added; graphene oxide-coated grids

T4 sequence (P70673 whole entry): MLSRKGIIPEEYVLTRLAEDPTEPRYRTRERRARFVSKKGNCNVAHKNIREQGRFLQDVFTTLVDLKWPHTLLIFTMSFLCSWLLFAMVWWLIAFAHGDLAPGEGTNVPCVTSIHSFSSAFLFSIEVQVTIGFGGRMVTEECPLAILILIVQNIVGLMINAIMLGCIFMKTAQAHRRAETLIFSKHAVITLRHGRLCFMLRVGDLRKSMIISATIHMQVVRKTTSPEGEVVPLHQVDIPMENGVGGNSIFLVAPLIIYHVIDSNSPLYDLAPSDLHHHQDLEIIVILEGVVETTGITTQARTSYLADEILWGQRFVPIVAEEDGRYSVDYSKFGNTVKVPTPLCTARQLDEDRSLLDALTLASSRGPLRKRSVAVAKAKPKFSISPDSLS
T4 sequence (Q09427 whole entry): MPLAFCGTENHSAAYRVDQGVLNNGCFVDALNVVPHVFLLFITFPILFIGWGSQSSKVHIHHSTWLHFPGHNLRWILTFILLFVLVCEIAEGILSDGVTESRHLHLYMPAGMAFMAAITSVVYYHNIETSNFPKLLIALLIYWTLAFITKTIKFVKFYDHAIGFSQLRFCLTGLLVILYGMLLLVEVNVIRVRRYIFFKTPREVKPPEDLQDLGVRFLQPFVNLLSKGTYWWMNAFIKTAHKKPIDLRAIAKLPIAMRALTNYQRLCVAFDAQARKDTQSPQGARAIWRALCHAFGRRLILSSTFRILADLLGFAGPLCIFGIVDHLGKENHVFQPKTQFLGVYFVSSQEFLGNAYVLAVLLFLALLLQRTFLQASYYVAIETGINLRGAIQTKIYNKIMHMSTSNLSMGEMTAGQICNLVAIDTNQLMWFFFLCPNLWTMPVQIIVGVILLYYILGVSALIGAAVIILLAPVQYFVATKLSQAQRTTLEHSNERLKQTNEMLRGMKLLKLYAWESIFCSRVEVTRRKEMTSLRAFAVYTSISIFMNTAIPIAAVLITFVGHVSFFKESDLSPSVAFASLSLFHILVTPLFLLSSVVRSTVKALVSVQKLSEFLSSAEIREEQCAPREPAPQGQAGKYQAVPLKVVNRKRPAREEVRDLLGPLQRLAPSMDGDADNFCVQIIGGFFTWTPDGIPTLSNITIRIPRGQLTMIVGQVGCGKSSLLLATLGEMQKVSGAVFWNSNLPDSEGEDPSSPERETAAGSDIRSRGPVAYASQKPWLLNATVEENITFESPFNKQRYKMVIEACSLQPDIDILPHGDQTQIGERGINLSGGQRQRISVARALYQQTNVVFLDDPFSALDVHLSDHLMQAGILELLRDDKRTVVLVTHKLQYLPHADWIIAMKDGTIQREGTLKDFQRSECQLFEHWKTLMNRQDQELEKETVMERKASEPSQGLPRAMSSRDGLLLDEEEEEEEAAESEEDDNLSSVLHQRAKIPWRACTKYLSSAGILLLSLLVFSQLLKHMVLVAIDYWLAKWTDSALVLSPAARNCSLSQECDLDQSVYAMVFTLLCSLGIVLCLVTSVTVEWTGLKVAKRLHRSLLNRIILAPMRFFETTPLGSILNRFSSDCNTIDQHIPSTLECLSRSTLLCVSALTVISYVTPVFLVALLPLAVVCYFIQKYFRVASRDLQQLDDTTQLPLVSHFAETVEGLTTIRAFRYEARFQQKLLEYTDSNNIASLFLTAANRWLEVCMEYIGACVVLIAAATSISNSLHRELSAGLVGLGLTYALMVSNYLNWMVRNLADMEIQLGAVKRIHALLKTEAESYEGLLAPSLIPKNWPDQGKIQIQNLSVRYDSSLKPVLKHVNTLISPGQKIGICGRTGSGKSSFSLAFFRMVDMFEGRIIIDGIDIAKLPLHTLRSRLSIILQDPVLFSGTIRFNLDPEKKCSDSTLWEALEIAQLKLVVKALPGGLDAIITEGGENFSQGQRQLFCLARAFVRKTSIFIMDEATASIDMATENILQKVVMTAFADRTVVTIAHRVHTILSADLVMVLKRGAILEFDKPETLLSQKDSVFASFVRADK
T1 sequence (Q09427 whole entry): as above
T1 sequence (P70673 whole entry R176A): as the sequence (P70673 whole entry) above, with R176A counted along it
T2 sequence (Q09427 whole entry K134A): as the sequence (Q09427 whole entry) above, with K134A counted along it
T2 sequence (P70673 whole entry): as the sequence (P70673 whole entry) above
T3 sequence (Q09427 whole entry K134A): as the sequence (Q09427 whole entry) above, with K134A counted along it
T3 sequence (P70673 whole entry R176A): as the sequence (P70673 whole entry) above, with R176A counted along it

Q: With `CCCCCCCC(=O)OC[C@H](COP(=O)(O)O[C@@H]1[C@H](O)[C@H](O)[C@@H](OP(=O)(O)O)[C@H](OP(=O)(O)O)[C@H]1O)OC(=O)CCCCCCC` [diC8-PIP2, diC8-PI(4,5)P2] as the molecule, how does the “reversibility of channel activation” value (KATP channels; synthetic short-chain PIP2) read?
A: The value was “readily reversible”.

Q: For “ATP-sensitive inward rectifier potassium channel Kir6.2 (pore subunit of the KATP channel) (not stated for the quoted measurement (this article's own constructs are rat Kir6.2, Rattus norvegicus, with hamster SUR1))”, which pKa (His175) is on record?
A: The pKa was 7.16.

Q: With PI(3,4)P2 as the molecule, how does the “activation of KATP channels” value (KATP channels) read?
A: The value was “activated equally well”.

Q: Which “activation of KATP channels” value (KATP channels) does the source give for PI(3,4,5)P3 here?
A: The value was “activated equally well”.

Q: Which “activation of KATP channels” value (KATP channels) does the source give for PI(4)P here?
A: Its value is “activated”.

Q: For PI(4,5)P2 [PIP2], which “activation of KATP channels” value (KATP channels) is on record?
A: The value was “activated equally well”.

Q: What about the “maximum fold-increase in currents after PIP2 exposure” value (“maximum fold-increase in currents” for short) [1] of the same molecule?
A: The value was 48.74 ± 18.25 fold and 48.74 fold.

Q: What about the “time of exposure in PIP2 for currents to reach maximum” value (“time of exposure in PIP2 for currents” for short) [1] of the same molecule?
A: The value was 298.57 ± 73.76 s and 298.57 s.

Q: And the “maximum fold-increase in currents” value [2]?
A: Its value is 3.96 ± 0.47 fold and 3.96 fold.

Q: What about the “time of exposure in PIP2 for currents” value [2] of the same molecule?
A: The value was 193.83 ± 33.66 s and 193.83 s.

Q: And the “maximum fold-increase in currents” value [3]?
A: Its value is 299.65 ± 121.72 fold and 299.65 fold.

Q: What about the “time of exposure in PIP2 for currents” value [3] of the same molecule?
A: The value was 419.33 ± 57.86 s and 419.33 s.

Q: And the “PIP2 exposure until currents plateaued” value [4]?
A: The value was ≤ 1 min.

Q: What about the “maximum fold-increase in currents” value ([4]; −50 mV, mean (± SEM)) of the same molecule?
A: Its value is 1.45 fold.

Q: What about the “time of exposure in PIP2 for currents” value ([4]; −50 mV, mean (± SEM)) of the same molecule?
A: Its value is 33.17 ± 3.18 s and 33.17 s.

B1: rat Kir6.2^Q52R (natural protein)
chain: MLSRKGIIPEEYVLTRLAEDPTEPRYRTRERRARFVSKKGNCNVAHKNIRERGRFLQDVFTTLVDLKWPHTLLIFTMSFLCSWLLFAMVWWLIAFAHGDLAPGEGTNVPCVTSIHSFSSAFLFSIEVQVTIGFGGRMVTEECPLAILILIVQNIVGLMINAIMLGCIFMKTAQAHRRAETLIFSKHAVITLRHGRLCFMLRVGDLRKSMIISATIHMQVVRKTTSPEGEVVPLHQVDIPMENGVGGNSIFLVAPLIIYHVIDSNSPLYDLAPSDLHHHQDLEIIVILEGVVETTGITTQARTSYLADEILWGQRFVPIVAEEDGRYSVDYSKFGNTVKVPTPLCTARQLDEDRSLLDALTLASSRGPLRKRSVAVAKAKPKFSISPDSLS
notes: Kir6.2, rat, with the neonatal diabetes mutation Q52R; the models hold residues 32-352 (N-terminal 31 residues and the tail beyond 352 not resolved); Four Kir6.2 subunits form the pore of the channel with four SUR1 subunits; the gene was cloned into pShuttle/AdEasy; PDB 6BAA (WT channel) was the starting model; also called Kir6.2 (pore-forming subunit of the SUR1/Kir6.2^Q52R KATP channel); …
Q: Which “stoichiometry N” value [5] does the source give for B1 here?
A: Its value is 4.
